According to ChEMBL document CHEMBL3632604, “Anti-inflammatory Inositol Derivatives from the Whole Plant of Inula cappa” (J Nat Prod, 2015):
Active and inactive are the calls of the source. The calls are words filed in the database; no cut-off is given here.

Tests used:
[1] = system: RAW264.7; assay: Antiinflammatory activity in mouse RAW264.7 cells assessed as inhibition of LPS-induced nitric oxide production at 10 uM preincubated for 30 mins followed by LPS stimulation measured after 24 hrs by Griess assay relative to control; assay type: functional
[2] = system: RAW264.7; assay: Antiinflammatory activity in mouse RAW264.7 cells assessed as inhibition of LPS-induced nitric oxide production preincubated for 30 mins followed by LPS stimulation measured after 24 hrs by Griess assay; assay type: functional, cell-based

SMILES | inhibition at 10 µM [1] | IC50 [2] | inhibition [1]
C/C=C(/C)C(=O)O[C@@H]1[C@@H](O)[C@H](OC(=O)/C(C)=C\C)[C@@H](OC(=O)/C(C)=C\C)[C@H](O)[C@@H]1OC(=O)C(C)C | 47.2% | 7.6 µM | –
C/C=C(/C)C(=O)O[C@@H]1[C@@H](O)[C@H](OC(=O)/C(C)=C\C)[C@@H](OC(=O)/C(C)=C\C)[C@@H](OC(=O)/C(C)=C\C)[C@H]1O | 47.9% | 19 µM | –
C/C=C(/C)C(=O)O[C@@H]1[C@@H](O)[C@H](OC(=O)/C(C)=C\C)[C@H](OC(=O)/C(C)=C\C)[C@@H](O)[C@H]1OC(=O)/C(C)=C\C | 39.7% | 7 µM | –
C/C=C(/C)C(=O)O[C@@H]1[C@@H](O)[C@@H](OC(=O)/C=C(\C)CC)[C@H](O)[C@@H](O)[C@@H]1OC(=O)/C(C)=C\C | – | 8.4 µM | Active
C/C=C(/C)C(=O)O[C@@H]1[C@H](OC(C)=O)[C@@H](OC(C)=O)[C@@H](OC(=O)/C(C)=C\C)[C@H](O)[C@H]1OC(=O)/C(C)=C\C | – | 7.1 µM | Active
C/C=C(/C)C(=O)O[C@@H]1[C@@H](O)[C@@H](OC(=O)/C(C)=C\C)[C@@H](OC(=O)/C(C)=C\C)[C@H](O)[C@H]1OC(=O)/C(C)=C\C | 42.1% | 9.8 µM | –
C/C=C(/C)C(=O)O[C@@H]1[C@@H](O)[C@H](OC(=O)/C(C)=C\C)[C@@H](OC(=O)/C(C)=C\C)[C@H](O)[C@@H]1O | 37.4% | 23.4 µM | –
C/C=C(/C)C(=O)O[C@@H]1[C@@H](O)[C@H](O)[C@@H](OC(=O)/C(C)=C\C)[C@@H](OC(=O)/C(C)=C\C)[C@H]1O | – | – | Active
C/C=C(/C)C(=O)O[C@@H]1[C@@H](O)[C@H](OC(=O)/C(C)=C\C)[C@@H](OC(=O)/C(C)=C\C)[C@H](O)[C@@H]1OC(C)=O | – | 9.6 µM | Active
C/C=C(/C)C(=O)O[C@H]1[C@H](OC(=O)/C(C)=C\C)[C@H](OC(=O)/C(C)=C\C)[C@@H](O)[C@@H](OC(=O)/C(C)=C\C)[C@@H]1O | 59.6% | 9.9 µM | –
C/C=C(/C)C(=O)O[C@H]1[C@H](O)[C@H](O)[C@H](OC(=O)/C=C(\C)CC)[C@@H](O)[C@@H]1OC(=O)/C(C)=C\C | – | – | Active
C/C=C(/C)C(=O)O[C@@H]1[C@H](O)[C@@H](OC(C)=O)[C@@H](OC(=O)/C(C)=C\C)[C@H](OC(=O)/C(C)=C\C)[C@H]1O | 43.4% | 11.9 µM | –
C/C=C(/C)C(=O)O[C@H]1[C@@H](O)[C@@H](OC(C)=O)[C@H](OC(=O)/C(C)=C\C)[C@@H](OC(=O)/C(C)=C\C)[C@@H]1O | 38.3% | – | –
C/C=C(/C)C(=O)O[C@H]1[C@H](O)[C@@H](O)[C@H](OC(=O)/C(C)=C\C)[C@H](OC(=O)/C(C)=C\C)[C@H]1O | – | 8.9 µM | Active
Cc1ccc(-c2cc(C(F)(F)F)nn2-c2ccc(S(N)(=O)=O)cc2)cc1 [CELECOXIB] | 59.2% | 1.6 µM | –
